These compounds were tested against T1, FLuc-C-HiBiT (Photinus pyralis, UniProt P08659) (assay: biochemical). Conditions: enzyme activity, 10 uM ATP; read-out: IC50 or SDR50 (mM) / FLuc E.
T1 construct: firefly luciferase with C-terminal HiBiT tag, E. coli expressed
T1 sequence (P08659 whole entry, looked up): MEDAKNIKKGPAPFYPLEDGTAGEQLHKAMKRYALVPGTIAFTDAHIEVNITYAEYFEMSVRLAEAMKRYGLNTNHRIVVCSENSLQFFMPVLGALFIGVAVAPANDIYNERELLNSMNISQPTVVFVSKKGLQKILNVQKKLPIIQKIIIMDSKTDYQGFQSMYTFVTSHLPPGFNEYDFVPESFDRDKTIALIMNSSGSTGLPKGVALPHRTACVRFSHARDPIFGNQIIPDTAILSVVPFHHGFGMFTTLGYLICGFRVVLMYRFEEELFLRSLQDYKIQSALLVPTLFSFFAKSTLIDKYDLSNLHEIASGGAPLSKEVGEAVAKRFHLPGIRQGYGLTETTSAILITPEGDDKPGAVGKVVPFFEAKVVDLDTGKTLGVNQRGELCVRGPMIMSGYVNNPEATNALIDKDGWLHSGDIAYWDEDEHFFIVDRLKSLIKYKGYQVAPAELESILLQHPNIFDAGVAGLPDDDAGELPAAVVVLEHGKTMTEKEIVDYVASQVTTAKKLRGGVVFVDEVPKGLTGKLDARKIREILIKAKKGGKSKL
COc1ccc(C(=O)NCCn2ccn3nc(-c4ccc(C)cc4C)cc3c2=O)cc1F [NCGC00456968-01] showed an IC50 of 0.00351 mM. Cc1ccc(-c2cc3c(=O)n(CCNC(=O)c4cccc(C#N)c4)ccn3n2)c(C)c1 [NCGC00456970-01] was tested, and the IC50 was 0.00313 mM. Cc1ccc(-c2cc3c(=O)n(CCNC(=O)c4nn(C)c5ccccc45)ccn3n2)c(C)c1 [NCGC00456971-01] gave an IC50 of 0.00157 mM. Work on Cc1ccc(-c2cc3c(=O)n(CCNC(=O)Cc4ccsc4)ccn3n2)c(C)c1 [NCGC00456972-01] yielded an IC50 of 0.00624 mM. Cc1ccc(-c2cc3c(=O)n(CCNC(=O)c4nccc5ccccc45)ccn3n2)c(C)c1 [NCGC00456974-01] showed an IC50 of 0.00881 mM. For COc1ccc(C(=O)NCCn2ccn3nc(-c4ccc(C)cc4C)cc3c2=O)c(C)c1 [NCGC00456977-01], the IC50 was 0.00495 mM. In the case of Cc1ccc(-c2cc3c(=O)n(CCNC(=O)c4cccc(Cl)c4)ccn3n2)c(C)c1 [NCGC00456978-01], the IC50 is reported as 0.00394 mM. Cc1ccc(-c2cc3c(=O)n(CCNC(=O)c4ccco4)ccn3n2)c(C)c1 [NCGC00456979-01] was tested, and the IC50 was 0.00989 mM. Cc1ccc(-c2cc3c(=O)n(CCNC(=O)c4ccccc4F)ccn3n2)c(C)c1 [NCGC00456982-01] showed an IC50 of 0.007 mM. Work on Cc1ccc(-c2cc3c(=O)n(CCNC(=O)c4ccc(N(C)C)cc4)ccn3n2)c(C)c1 [NCGC00456986-01] yielded an IC50 of 0.00313 mM. COc1ccccc1C(=O)NCCn1ccn2nc(-c3ccc(C)cc3C)cc2c1=O [NCGC00456987-01] gave an IC50 of 0.00989 mM. Compound Cc1cc(C)cc(C(=O)NCCn2ccn3nc(-c4ccc(C)cc4C)cc3c2=O)c1 [NCGC00456988-01] has an IC50 of 0.007 mM. COc1cccc(CC(=O)NCCn2ccn3nc(-c4ccc(C)c(C)c4)cc3c2=O)c1 [NCGC00457016-01] showed an IC50 of 0.0111 mM. For COc1cccc(C(=O)NCCn2ccn3nc(-c4ccc(C)c(C)c4)cc3c2=O)c1OC [NCGC00457018-01], the IC50 was 0.00785 mM. Compound Cc1ccc(-c2cc3c(=O)n(CCNC(=O)c4ccoc4)ccn3n2)cc1C [NCGC00457019-01] has an IC50 of 0.00989 mM. Cc1ccc(-c2cc3c(=O)n(CCNC(=O)c4cccc5[nH]ccc45)ccn3n2)cc1C [NCGC00457046-01] was tested, and the IC50 was 0.00785 mM. For COc1cccc(-c2cc3c(=O)n(CCNC(=O)C4CCN(C(C)=O)CC4)ccn3n2)c1 [NCGC00457070-01], the IC50 was 0.0124 mM. COc1cccc(-c2cc3c(=O)n(CCNC(=O)c4ccccc4Cl)ccn3n2)c1 [NCGC00457089-01] gave an IC50 of 0.00881 mM. For Cc1noc(-c2cccn3c(CNC(=O)c4ccc(C(C)(C)C)cc4)nnc23)n1 [NCGC00457512-01], the IC50 was 0.00989 mM. CCc1nnc(CC2CCN(C(=O)Nc3ccc4c(c3)OCCO4)CC2)[nH]1 [NCGC00458299-01] gave an IC50 of 0.0111 mM. CCCn1c(C)cnc1CC1CCN(C(=O)C2(c3ccc(OC)cc3)CC2)C1 (stereo not shown) [NCGC00464172-01] showed an IC50 greater than 0.03 mM. For O=C(Nc1ccc2c(c1)OCCO2)N1CC(c2nc(CCOCC3CC3)no2)C1 [NCGC00464361-01], the IC50 was 0.00989 mM. With Cc1cccc(OCCc2noc(C3CN(C(=O)Nc4ccc5c(c4)OCCO5)C3)n2)c1 [NCGC00464383-01] the IC50 was 0.007 mM. O=C(O)[C@@H]1CN(Cc2ccccc2)C[C@@H]1C(=O)N1CCc2ccccc21 [NCGC00464394-01] gave an IC50 greater than 0.03 mM. Work on O=C1NCCCCCCN(C(=O)Nc2ccc3c(c2)OCCO3)[C@H]2CCC[C@@H]12 [NCGC00465105-01] yielded an IC50 of 0.00351 mM. For O=C1CC(c2ccccc2)N(C(=O)CNC(=O)Nc2ccc3c(c2)OCCO3)CCCCCN1 (stereo not shown) [NCGC00465553-01], the IC50 was 0.0176 mM. COc1ccc(C(=O)N2CCCC(c3nc(-c4ccccc4)no3)CCNC(=O)CC2)c(OC)n1 (stereo not shown) [NCGC00465834-01] was tested, and the IC50 was 0.0111 mM. O=C1NCCCCCCN(C(=O)Nc2ccc3c(c2)OCCO3)[C@H]2CCCC[C@@H]12 [NCGC00466580-01] was tested, and the IC50 was 0.00881 mM. Work on CN1CCCCCCN(C(=O)Nc2ccc3c(c2)OCCO3)CCC1=O [NCGC00466735-01] yielded an IC50 of 0.00989 mM. O=C1NCCCCCCN(Cc2ccncc2)[C@@H]2CN(C(=O)Nc3ccc4c(c3)OCCO4)CC[C@H]12 [NCGC00467232-01] showed an IC50 of 0.0111 mM. Compound Cc1cnc(CCNC(=O)Nc2ccc3c(c2)OCCO3)n1C1CC1 [NCGC00469576-01] has an IC50 of 0.0111 mM.
